ChEMBL document CHEMBL1144346, “Synthesis, DNA affinity, and antiprotozoal activity of fused ring dicationic compounds and their prodrugs” (J Med Chem, 2005)

How the values were obtained:
[1] = tested on: Trypanosoma brucei rhodesiense; test: In vitro antiprotozoal activity against Trypanosoma brucei rhodesiense strain STIB900; type: functional, organism-based
[2] = tested on: Plasmodium falciparum; test: In vitro antiprotozoal activity for Plasmodium falciparum K1; type: functional, organism-based
[3] = tested on: L6; test: In vitro cytotoxicity evaluated using cultured L6 rat myoblast cells; type: functional; conditions: read-out: TD50 (the source's name)
[4] = tested on: Mus musculus; test: In vivo antitrypanosomal activity (100 mg/kg for 4 days, p.o.) measured as cured mice infected with Trypanosoma brucei rhodesiense strain STIB900; 0 cured out of 4
[5] = tested on: Nucleic Acid; test: poly(d(A-T)2) binding affinity is measured as change in DNA melting temperature; type: nucleic-acid assay
[6] = tested on: Mus musculus; test: In vivo antitrypanosomal activity (10 mg/kg for 4 days, i.p.) measured as cured mice infected with Trypanosoma brucei rhodesiense strain STIB900; 2 cured out of 4; type: functional
[7] = tested on: Mus musculus; test: In vivo antitrypanosomal activity (10 mg/kg for 4 days, i.p.) measured as survival days of mice infected with Trypanosoma brucei rhodesiense strain STIB900; type: functional
[8] = tested on: Mus musculus; test: In vivo antitrypanosomal activity (25 mg/kg for 4 days, p.o.) measured as cured mice infected with Trypanosoma brucei rhodesiense strain STIB900; 2 cured out of 4
[9] = tested on: Mus musculus; test: In vivo antitrypanosomal activity (100 mg/kg for 4 days, p.o.) measured as cured mice infected with Trypanosoma brucei rhodesiense strain STIB900; 0 cured out of 4; remark: listed apart in the source
[10] = tested on: Mus musculus; test: In vivo antitrypanosomal activity (100 mg/kg for 4 days, p.o.) measured as survival days of mice infected with Trypanosoma brucei rhodesiense strain STIB900
[11] = tested on: Mus musculus; test: In vivo antitrypanosomal activity (20 mg/kg for 4 days, i.p.) measured as cured mice infected with Trypanosoma brucei rhodesiense strain STIB900; 3 cured out of 4; type: functional
[12] = tested on: Mus musculus; test: In vivo antitrypanosomal activity (20 mg/kg for 4 days, i.p.) measured as survival days of mice infected with Trypanosoma brucei rhodesiense strain STIB900; type: functional
[13] = tested on: Mus musculus; test: In vivo antitrypanosomal activity (20 mg/kg for 4 days, i.p.) measured as cured mice infected with Trypanosoma brucei rhodesiense strain STIB900; 0 cured out of 4; type: functional

| SMILES | IC50 [1] | IC50 [2] | CC50 [3] | delta Tm [5] | further results |
| --- | --- | --- | --- | --- | --- |
| CCOC(=O)N/C(=N/C(C)C)Nc1ccc2c(c1)Cc1cc(N/C(=N\C(C)C)NC(=O)OCC)ccc1-2 | 2.5 µM | 6.3 µM | 94.2 µM |  | Cures [4]: 0 |
| N=C(N)Nc1ccc2c(c1)C(=O)c1cc(NC(=N)N)ccc1-2 | 0.0073 µM | 0.268 µM | 41.5 µM | 6.1 °C | Cures [6]: 2; Survival [7]: >50.75 days |
| CC/N=C(/NC(=O)OCC)Nc1ccc2c(c1)Cc1cc(/N=C(/NCC)NC(=O)OCC)ccc1-2 | 8 µM | 4.1 µM | 174 µM |  |  |
| CCOC(=O)N/C(=N/C)Nc1ccc2c(c1)Cc1cc(N/C(=N\C)NC(=O)OCC)ccc1-2 | 2.9 µM | 10.3 µM | 95.6 µM |  | Cures [8]: 2 |
| CCOC(=O)NC(=N)Nc1ccc2c(c1)C(=O)c1cc(NC(=N)NC(=O)OCC)ccc1-2 | 12.9 µM | 3.2 µM | > 200 µM |  | Cures [9]: 0 |
| CC/N=C(/N)Nc1ccc2c(c1)Cc1cc(N/C(N)=N\CC)ccc1-2 | 0.0169 µM | 0.0133 µM | 39.2 µM | 10 °C |  |
| N=C(Nc1ccc2c(c1)Cc1cc(NC(=N)c3ccccn3)ccc1-2)c1ccccn1 | 0.894 µM | 1.2 µM | 98.7 µM | 15.2 °C |  |
| CC(C)CONC(=N)Nc1ccc2c(c1)Cc1cc(NC(=N)NOCC(C)C)ccc1-2 | 21.2 µM | 0.351 µM | 68.4 µM |  | Survival [10]: 6.75 days; Cures [4]: 0 |
| C/N=C(/N)Nc1ccc2c(c1)Cc1cc(N/C(N)=N\C)ccc1-2 | 0.0126 µM | 0.01 µM | 65.2 µM | 10.1 °C | Cures [11]: 3; Survival [12]: >52 days |
| CONC(=N)Nc1ccc2c(c1)Cc1cc(NC(=N)NOC)ccc1-2 | 47.5 µM | 3 µM | 137 µM |  | Survival [10]: 8 days; Cures [4]: 0 |
| CCOC(=O)NC(=N)Nc1ccc2c(c1)Cc1cc(NC(=N)NC(=O)OCC)ccc1-2 | 0.814 µM | 3.7 µM | > 201 µM |  | Survival [10]: 18.75 days; Cures [4]: 0 |
| N=C(N)Nc1ccc2c(c1)Cc1cc(NC(=N)N)ccc1-2 |  |  | 4.7 µM | 13.6 °C | Cures [13]: 0; Survival [12]: 6 days |
| CC(C)/N=C(/N)Nc1ccc2c(c1)Cc1cc(N/C(N)=N\C(C)C)ccc1-2 | 0.0404 µM | 0.0357 µM | 85.2 µM | 9.3 °C |  |
| N=C(N)Nc1ccc2c(c1)C(=O)c1cc(NC(=N)N)ccc1C2=O | 0.128 µM | 30.2 µM | 35.3 µM | 7.2 °C |  |
| N=C(Nc1ccc2c(c1)Cc1cc(NC(=N)c3ccccc3)ccc1-2)c1ccccc1 | 0.292 µM | 0.481 µM | 1.9 µM | 22 °C |  |
| N=C(N)c1ccc(-c2ccc(-c3ccc(C(=N)N)cc3)o2)cc1 [FURAMIDINE] |  |  | 6.4 µM | 25 °C | Cures [13]: 0; Survival [12]: 52.5 days |
| N=C(N)c1ccc(OCCCCCOc2ccc(C(=N)N)cc2)cc1 [PENTAMIDINE] | 0.0023 µM | 0.0346 µM | 1.5 µM | 12.6 °C | Cures [13]: 0; Survival [12]: 40.8 days |
